Test results published in US20250268815A1, “TRANSDERMAL DELIVERY SYSTEMS FOR ADMINISTRATION OF HYDROPHILIC MOLECULES AND METHODS OF MAKING AND USING SAME” (STATE OF ISRAEL, MINISTRY OF AGRICULTURE & RURAL …, priority 2021, published 2025).

Tests used:
[1] = tested on: skin
[2] = tested on: Human skin (full thickness)

| insulin permeation across human skin ex vivo [2] | Molecule | trans-epidermal water loss (TEWL), Baseline ([1]; before application, 5 hr exposure experiment) [g/m^2/hr] | increase of water loss (TEWL) ([1]; positive control, same experimental settings) [fold] |
| --- | --- | --- | --- |
|  | CCCCCCCCCCCCOS(=O)(=O)[O-].[Na+] [SDS, sodium dodecyl sulfate] | 10.0 ± 2.4 | ~3 |
| did not enhance insulin permeation | Sodium carboxymethyl cellulose [CMC] |  |  |
